From patent US20130231292A1, “Synergistic anti-proliferation activity of TAS-108 with mTOR inhibitors against cancer cells” (priority 2012, published 2013)
Entries after “also recorded” stand apart in the source; their conditions may differ. Where two headings read alike, the source gives them in different places. One block for each compound: values may come before it.

Columns and labels:
[1] = test system: 60 cancer cell lines of different tissues of origin; test: Non-bias 5x4 checkerboard combination screen of TAS108 with 30 chemotherapeutic agents; type: cell-based; parameters: ES: synergistic effect size: scale not given here; settings: for ES: synergistic effect size: in combination with TAS-108, meta analysis across doses and 60 cell lines; for synergy with TAS-108 across the cell line panel (in words): in combination with TAS-108
From the text: We used 5×4 factorial (checkerboard) design. The combinations were screened against 60 cancer cell lines of different tissues of origin, including melanoma, ovarian, CNS, renal, lung, breast, colon, prostate, and leukemia cancers, represented by cell lines including LOXIMVI, M14,MDAMB468, HT29, NCIH522, HS578T, RPMI8226, HOP92, HL60, OVCAR8, SR, SKMEL2, PC3, HOP62, HCC2998,786O, U251, OVCAR3, NCIH23, T47D, SF295, MOLT4, HCT15, SF539, BT549, SN12C, KM12, ADRRES, A498, NCIH226, NCIH322M, OVCAR5, MALME, OVCAR4, RXF393, SW620, CCRFCEM, UACC62, ACHN, SKOV3, SF268, EKVX, A549, NCIH460, IGROV1, SNB75, UACC257, UO31, HCT116, TK10, K562, SKMEL28, COLO205, SNB19, MDAMB231, DU145, CAKI1, MDAMB435, and MCF7.
After quantifying the degree of synergy for specified doses of compounds within each individual cell line, we used meta analysis to aggregate those effects across doses and the cell line panel (Table 1).

MDAMB468 = test: CellTiter-Glo cell viability assay, single agents, three days; type: cell-based; settings: Homo sapiens, MDA-MB-468, 72 h; for Emax: read-out: Max Inhibition; for GI50: MDAMB468, three days, CellTiter-Glo
HS578T = test: as above; type: cell-based; settings: Homo sapiens, Hs-578T, 72 h; for Emax: read-out: Max Inhibition
MDAMB231 = test: as above; type: cell-based; settings: Homo sapiens, MDA-MB-231, 72 h; for Emax: read-out: Max Inhibition; for GI50: MDAMB231, three days, CellTiter-Glo
T47D = test: as above; type: cell-based; settings: Homo sapiens, 72 h; for Emax: read-out: Max Inhibition
BT549 = test: as above; type: cell-based; settings: Homo sapiens, BT-549, 72 h; for Emax: read-out: Max Inhibition; for GI50: BT549, three days, CellTiter-Glo
MCF7 = test: as above; type: cell-based; settings: Homo sapiens; for Emax: read-out: Max Inhibition
[2] = compared to Tamoxifen; cited from earlier work
[3] = test system: Tamoxifen-sensitive and Tamoxifen-resistant breast carcinomas; settings: in vitro and in vivo; cited from earlier work
[4] = Phase II clinical trial; cited from earlier work
[5] = compared to Tamoxifen; cited from earlier work; remark: listed apart in the source
[6] = test system: breast carcinoma cells with aromatose inhibitor resistant characteristics; settings: aromatase inhibitor resistant characteristics; cited from earlier work
HS 578T = test: Combination screen of TAS-108 with a second compound, CellTiter-Glo; settings: in combination with TAS-108
Protocol: (§1) Cells were treated with compounds alone or in combination for three days and CellTiter-Glo® Luminescent Cell Viability Assay (Promega Corp.) was used as the endpoint to measure cell viability.
(§2) Cells were cultured in RPMI with 10% fetal bovine serum and used between passage 2 and passage 20.
(§3) Other compounds used were purchased from commercial sources (Sigma, AK Scientific). 40 mM Compound stocks in 100% DMSO were made. Master plates were made with Janus (PerkinElmer), then further diluted and added to the cell plates with Matrix Platemate (Thermo) on Day 0.
(§4) CellTiter-Glo® Luminescent Cell Viability Assay (Promega Corp.) was used to measure ATP as an indicator of viable cells on Day 3 using Envision (PerkinElmer) and back up plate reader Analyst HT (MDS) and Gen5 (BioTek).
(§5) Relative Luminescent Units (RLU) were plotted against corresponding drug concentrations and fitted with a standard four parameter sigmoidal curve with custom coded R program. Percentage growth inhibition is calculated as: [(Ti−Tz)/(C−Tz)]×100 for concentrations for which Ti≧Tz and [(Ti−Tz)/Tz]×100 for concentrations for which Ti<Tz.
(§6) Twenty-five doses were tested for each pair of combinations.
(§7) N: no synergistic effect; Y: synergistic effect; y: weak synergistic effect.

[7] = test system: human mammary carcinoma cell lines; test: Combination screen of TAS-108 with a second compound, all six breast lines; settings: number of the six breast cell lines with synergy, in combination with TAS-108
Protocol: as §1, §2, §3, §4, §5, §6, §7

[8] = HS578T, three days, CellTiter-Glo, read-out: GI50
[9] = three days, CellTiter-Glo, read-out: GI50
[10] = 72 h, MCF7, highest dose tested
[11] = 72 h, MCF7, three days, CellTiter-Glo, read-out: GI50

Compound: O=c1[nH]c(=O)n([C@H]2C[C@H](O)[C@@H](CO)O2)cc1F [Floxuridine]
ES: synergistic effect size [1]: −0.016

Compound: N.N.O=C([O-])C1(C(=O)[O-])CCC1.[Pt+2] [Carboplatin]
ES: synergistic effect size [1]: −0.004

Compound: O=C(CCCCCCC(=O)Nc1ccccc1)NO [Vorinostat]
ES: synergistic effect size [1]: 0.004

Compound: CC[C@]1(O)C[C@H]2CN(CCc3c([nH]c4ccccc34)[C@@](C(=O)OC)(c3cc4c(cc3OC)N(C=O)[C@H]3[C@@](O)(C(=O)OC)[C@H](OC(C)=O)[C@]5(CC)C=CCN6CC[C@]43[C@@H]65)C2)C1 [Vincristine]
ES: synergistic effect size [1]: 0.023

Compound: CCCCCOC(=O)Nc1nc(=O)n([C@@H]2O[C@H](C)[C@@H](O)[C@H]2O)cc1F [Capecitabine]
ES: synergistic effect size [1]: −0.001

Compound: Nc1ccn([C@@H]2O[C@H](CO)[C@@H](O)C2(F)F)c(=O)n1 [Gemcitabine]
ES: synergistic effect size [1]: −0.007

Compound: C/C=C1\NC(=O)[C@H]2CSSCC/C=C/[C@H](CC(=O)N[C@H](C(C)C)C(=O)N2)OC(=O)[C@H](C(C)C)NC1=O [Romidepsin]
Emax (MDAMB468): 99.8%
GI50 (HS578T): 0.0003 µM
Emax (HS578T): 99.6%
Emax (MDAMB231): 99.9%
GI50 (MCF7; MCF7, 72 h): 0.00044 µM
Emax (MCF7; MCF7, 72 h): 94%
GI50 (T47D): 0.0011 µM
Emax (T47D): 96.7%
Emax (BT549): 99.8%

Compound: CC(=O)O[C@@]12CO[C@@H]1C[C@H](O)[C@@]1(C)C(=O)[C@H](O)C3=C(C)[C@@H](OC(=O)[C@H](O)[C@@H](NC(=O)OC(C)(C)C)c4ccccc4)C[C@@](O)([C@@H](OC(=O)c4ccccc4)[C@H]21)C3(C)C [Docetaxel]
synergy with TAS-108 across the cell line panel (in words) [1]: synergy was consistently found; also recorded: significant synergy
ES: synergistic effect size [1]: 0.23

Compound: Nc1nc(F)nc2c1ncn2[C@@H]1O[C@H](CO)[C@@H](O)[C@@H]1O [FluroaraA]
ES: synergistic effect size [1]: 0.008

Compound: CCc1c2c(nc3ccc(O)cc13)-c1cc3c(c(=O)n1C2)COC(=O)[C@]3(O)CC [SN38]
ES: synergistic effect size [1]: 0.022

Compound: Nc1ccn([C@@H]2O[C@H](CO)[C@@H](O)[C@@H]2O)c(=O)n1 [Cytarabine]
ES: synergistic effect size [1]: −0.008

More lines, main results first:

GI50 (MDAMB468): 16 µM
GI50 (MDAMB231): 0.0099 µM
GI50 (T47D; [9]): 0.86 µM
GI50 (BT549): 0.058 µM
Compound: Cc1nc(Nc2ncc(C(=O)Nc3c(C)cccc3Cl)s2)cc(N2CCN(CCO)CC2)n1 [Dasatinib]
Emax (MDAMB468; MDAMB468, highest dose tested): 40%
Emax (HS578T; HS578T, highest dose tested): 79%
GI50 (HS578T; [8]): 0.015 µM
Emax (MDAMB231; MDAMB231, highest dose tested): 82%
Emax (T47D; highest dose tested): 37%
Emax (BT549; BT549, highest dose tested): 51%

GI50 (MDAMB468): 76 µM
Compound: C#Cc1cccc(Nc2ncnc3cc(OCCOC)c(OCCOC)cc23)c1 [Erlotinib]
Emax (MDAMB468; MDAMB468, highest dose tested): 34%

GI50 (MDAMB468): 21 µM
GI50 (MDAMB231): 5.6 µM
GI50 (BT549): 4.2 µM
Compound: CCN(CC)CCNC(=O)c1c(C)[nH]c(/C=C2\C(=O)Nc3ccc(F)cc32)c1C [Sunitinib]
Emax (HS578T; HS578T, highest dose tested): 65%
GI50 (HS578T; [8]): 6.9 µM
Emax (MDAMB231; MDAMB231, highest dose tested): 99%
Emax (BT549; BT549, highest dose tested): 100%

GI50 (MCF7; [11]): 1 µM
Compound: C[C@]12CC[C@@H]3c4ccc(O)cc4C[C@@H](CCCCCCCCC[S+]([O-])CCCC(F)(F)C(F)(F)F)[C@H]3[C@@H]1CC[C@@H]2O (stereo partly shown) [Faslodex]
Emax (MCF7; [10]): 30%
Emax (T47D; highest dose tested): 24%

GI50 (MDAMB468): 0.063 µM
GI50 (MDAMB231): 11 µM
GI50 (MCF7; [11]): 0.054 µM
GI50 (T47D; [9]): 0.047 µM
GI50 (BT549): 0.22 µM
Compound: CO[C@H]1C[C@@H]2CC[C@@H](C)[C@@](O)(O2)C(=O)C(=O)N2CCCC[C@H]2C(=O)O[C@H]([C@H](C)C[C@@H]2CC[C@@H](O)[C@H](OC)C2)CC(=O)[C@H](C)/C=C(\C)[C@@H](O)[C@@H](OC)C(=O)[C@H](C)C[C@H](C)/C=C/C=C/C=C/1C [Rapamycin]
Emax (MDAMB468; MDAMB468, highest dose tested): 100%
Emax (HS578T; HS578T, highest dose tested): 41%
GI50 (HS578T; [8]): 1 µM
Emax (MDAMB231; MDAMB231, highest dose tested): 95%
Emax (MCF7; [10]): 55%
Emax (T47D; highest dose tested): 45%
Emax (BT549; BT549, highest dose tested): 99%

GI50 (MDAMB468): 1.8 µM
GI50 (MDAMB231): 9.3 µM
GI50 (MCF7; [11]): 10 µM
GI50 (T47D; [9]): 11 µM
GI50 (BT549): 13 µM
Compound: CCN(CC)Cc1ccc(OCC[C@H]2CC[C@H]3[C@@H]4[C@H](C)Cc5cc(O)ccc5[C@H]4CC[C@]23C)c(OC)c1 [TAS-108, (7α)-21-[4-[(Diethylamino)methyl]-2-methoxyphenoxy]-7-methyl-19-norpregna-1,3,5(10)-trien-3-ol 2-hydroxy-1,2,3-propanetricarboxylate]
Emax (MDAMB468; MDAMB468, highest dose tested): 100%
Emax (HS578T; HS578T, highest dose tested): 100%
GI50 (HS578T; [8]): 8.2 µM
Emax (MDAMB231; MDAMB231, highest dose tested): 100%
Emax (MCF7; [10]): 99%
uterotrophic activity [2]: significantly less uterotrophic activity compared to Tamoxifen
anti-tumor activity [3]: potent anti-tumor activity
Emax (T47D; highest dose tested): 100%
clinical benefit [4]: provided clinical benefits
tolerability [4]: well tolerated
Emax (BT549; BT549, highest dose tested): 100%
bone density [5]: protects against reductions in bone density, similar to Tamoxifen
growth of breast carcinoma cells [6]: inhibits the growth

GI50 (MCF7; [11]): 25 µM
Compound: O=C(c1ccc(OCCN2CCCCC2)cc1)c1c(-c2ccc(O)cc2)sc2cc(O)ccc12 [Raloxifene]
Emax (MCF7; [10]): 27%

GI50 (MDAMB468): 1.9 µM
GI50 (MDAMB231): 14 µM
GI50 (T47D; [9]): 5.8 µM
Compound: CS(=O)(=O)CCNCc1ccc(-c2ccc3ncnc(Nc4ccc(OCc5cccc(F)c5)c(Cl)c4)c3c2)o1 [Lapatinib]
Emax (MDAMB468; MDAMB468, highest dose tested): 99%
Emax (MDAMB231; MDAMB231, highest dose tested): 98%
Emax (T47D; highest dose tested): 31%

GI50 (MDAMB468): 0.063 µM
GI50 (MDAMB231): 54 µM
GI50 (MCF7; [11]): 0.17 µM
GI50 (T47D; [9]): 0.052 µM
GI50 (BT549): 5.8 µM
Compound: CO[C@H]1C[C@@H]2CC[C@@H](C)[C@@](O)(O2)C(=O)C(=O)N2CCCC[C@H]2C(=O)O[C@H]([C@H](C)C[C@@H]2CC[C@@H](OCCO)[C@H](OC)C2)CC(=O)[C@H](C)/C=C(\C)[C@@H](O)[C@@H](OC)C(=O)[C@H](C)C[C@H](C)/C=C/C=C/C=C/1C [Everolimus]
Emax (MDAMB468; MDAMB468, highest dose tested): 100%
Synergistic effect of TAS 108 paired with compound (HS 578T): Y
Emax (HS578T; HS578T, highest dose tested): 41%
GI50 (HS578T; [8]): 0.063 µM
Emax (MDAMB231; MDAMB231, highest dose tested): 40%
Emax (MCF7; [10]): 43%
Emax (T47D; highest dose tested): 49%
synergy with TAS-108 across the cell line panel (in words) [1]: synergy was consistently found; also recorded: significant synergy
ES: synergistic effect size [1]: 0.037
Emax (BT549; BT549, highest dose tested): 100%
Synergy # [7]: 6

GI50 (MDAMB231): 26 µM
GI50 (BT549): 29 µM
Compound: Cc1ccc(NC(=O)c2ccc(CN3CCN(C)CC3)cc2)cc1Nc1nccc(-c2cccnc2)n1 [Imatinib]
Emax (MDAMB231; MDAMB231, highest dose tested): 91%

GI50 (MDAMB231): 14 µM
Compound: Cc1cn(-c2cc(NC(=O)c3ccc(C)c(Nc4nccc(-c5cccnc5)n4)c3)cc(C(F)(F)F)c2)cn1 [Nilotinib]
